# Measurements as given in patent US9120820B2, “Fluorescent molecular probes for use in assays that measure test compound competitive binding with SAM-utilizing proteins” (CAYMAN CHEMICAL COMPANY, INCORPORATED, priority 2011, dated 2015).
# Several values for one entry are separate records, joined by “and”; a condition that tells them apart may be missing. Equal values may be shown once. Read-outs that look alike come from different tables or passages of the source.
# Columns and labels:
# SET7/9 = target: T1, SET7/9 (Homo sapiens, UniProt Q8WTS6); test: Fluorescence polarization saturation binding of fluorescent probe to SET7/9
# T1 construct: purchased Cayman 10320
# T1 sequence (Q8WTS6 1-366): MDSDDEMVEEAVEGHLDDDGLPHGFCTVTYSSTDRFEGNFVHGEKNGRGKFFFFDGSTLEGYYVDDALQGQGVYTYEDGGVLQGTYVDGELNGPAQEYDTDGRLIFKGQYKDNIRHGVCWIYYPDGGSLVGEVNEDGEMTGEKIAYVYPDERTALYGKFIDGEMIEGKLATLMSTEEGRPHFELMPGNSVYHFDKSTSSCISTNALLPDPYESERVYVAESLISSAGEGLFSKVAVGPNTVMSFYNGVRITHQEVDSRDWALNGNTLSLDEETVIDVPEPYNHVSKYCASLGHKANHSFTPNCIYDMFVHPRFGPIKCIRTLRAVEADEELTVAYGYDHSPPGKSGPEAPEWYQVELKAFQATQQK
# Experimental: (§1) Methods: The experiment was performed once, with two replicate wells for all methyltransferases per condition. The sole exception to this is NSD2 (see details below). The assay was performed in a ½ area, black, 96-well plate (Corning #3686) in a final volume of 30 μL. Methyltransferases (Table 1) were serially diluted two-fold in FP buffer (Cayman Catalog #600028) and 15 μL of a given dilution were added per well to the assay plate. Fifteen microliters of sinefungin probe 1A (10 nM) were added to each well, giving a final sinefungin probe 1A concentration of 5 nM. This concentration of sinefungin probe 1A was chosen because it had at least a 10-fold increase in fluorescence (excitation max 575 nm/emission max 615 nm) over background (buffer). The mixture was incubated in the dark at room temperature for 30 minutes and its fluorescence polarization was read using a BioTek Synergy 4.
# DNMT3b = DNMT3b (Homo sapiens, UniProt Q9UBC3); test: Fluorescence polarization saturation binding of fluorescent probe to DNMT3b; conditions: saturation-binding format, read-out: Sinefungin Probe 1A Affinity
# Experimental: (§2) Sinefungin Probe 1A was tested for the ability to bind to 16 proteins, including several non-methlytransferase protein controls (Table 2). This probe binds to 4 methyltransferases (SET7/9, G9a, GLP, MLL) with Kd values <2 μM.
# GLP = target: T2, GLP (Homo sapiens, UniProt Q9H9B1); test: Fluorescence polarization saturation binding of fluorescent probe to GLP; conditions: saturation-binding format, mean ± SEM, read-out: Sinefungin Probe 1A Affinity
# T2 sequence (Q9H9B1 1-1298): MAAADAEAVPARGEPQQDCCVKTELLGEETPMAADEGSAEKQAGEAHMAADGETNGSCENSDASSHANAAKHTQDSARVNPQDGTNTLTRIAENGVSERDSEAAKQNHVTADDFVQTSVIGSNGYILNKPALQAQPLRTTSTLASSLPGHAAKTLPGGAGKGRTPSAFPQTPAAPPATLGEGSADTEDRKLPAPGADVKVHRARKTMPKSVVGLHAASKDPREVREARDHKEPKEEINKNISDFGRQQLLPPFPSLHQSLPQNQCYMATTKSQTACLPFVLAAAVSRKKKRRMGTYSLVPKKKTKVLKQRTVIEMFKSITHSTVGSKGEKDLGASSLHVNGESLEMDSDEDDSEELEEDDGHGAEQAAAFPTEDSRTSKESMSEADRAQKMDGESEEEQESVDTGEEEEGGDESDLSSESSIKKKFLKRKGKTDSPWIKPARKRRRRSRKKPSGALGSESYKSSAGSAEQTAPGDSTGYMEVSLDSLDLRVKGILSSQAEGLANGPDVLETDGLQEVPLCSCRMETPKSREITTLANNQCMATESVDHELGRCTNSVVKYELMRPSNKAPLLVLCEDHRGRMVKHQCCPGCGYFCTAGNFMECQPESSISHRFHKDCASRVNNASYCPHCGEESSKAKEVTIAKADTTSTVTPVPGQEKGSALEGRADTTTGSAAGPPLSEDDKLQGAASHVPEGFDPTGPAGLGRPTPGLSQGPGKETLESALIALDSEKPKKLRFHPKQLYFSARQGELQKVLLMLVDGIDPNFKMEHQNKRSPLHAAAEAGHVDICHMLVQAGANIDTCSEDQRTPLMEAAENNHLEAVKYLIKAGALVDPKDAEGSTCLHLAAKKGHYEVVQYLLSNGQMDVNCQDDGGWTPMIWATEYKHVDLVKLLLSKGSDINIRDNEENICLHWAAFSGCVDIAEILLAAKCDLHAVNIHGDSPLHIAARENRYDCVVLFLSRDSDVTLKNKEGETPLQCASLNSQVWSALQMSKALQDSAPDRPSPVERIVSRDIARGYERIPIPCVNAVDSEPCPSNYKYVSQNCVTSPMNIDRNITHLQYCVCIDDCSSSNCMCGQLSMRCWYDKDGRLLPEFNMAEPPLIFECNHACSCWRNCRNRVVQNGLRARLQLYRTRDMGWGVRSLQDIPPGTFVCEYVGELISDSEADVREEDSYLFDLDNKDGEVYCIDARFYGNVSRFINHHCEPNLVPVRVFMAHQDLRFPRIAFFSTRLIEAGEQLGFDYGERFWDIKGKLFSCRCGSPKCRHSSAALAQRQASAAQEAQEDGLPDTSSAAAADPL
# Experimental: as §2
# PRDM9 = target: T3, PRDM9 (Homo sapiens, UniProt Q9NQV7); test: Fluorescence polarization saturation binding of fluorescent probe to PRDM9; conditions: saturation-binding format, mean ± SEM, read-out: Sinefungin Probe 1A Affinity
# T3 construct: purchased Cayman
# Experimental: as §2
# MLL = MLL (Homo sapiens, UniProt Q03164); test: Fluorescence polarization saturation binding of fluorescent probe to MLL; conditions: saturation-binding format, mean ± SEM, read-out: Sinefungin Probe 1A Affinity
# Experimental: as §2
# Trypsin = test: Fluorescence polarization saturation binding of fluorescent probe to Trypsin (control protein); conditions: saturation-binding format, read-out: Sinefungin Probe 1A Affinity
# Experimental: as §2
# PRMT1 = target: T4, PRMT1 (Homo sapiens, UniProt Q99873); test: Fluorescence polarization saturation binding of fluorescent probe to PRMT1
# T4 construct: purchased Cayman
# Experimental: as §1
# T4 sequence (Q99873 whole entry): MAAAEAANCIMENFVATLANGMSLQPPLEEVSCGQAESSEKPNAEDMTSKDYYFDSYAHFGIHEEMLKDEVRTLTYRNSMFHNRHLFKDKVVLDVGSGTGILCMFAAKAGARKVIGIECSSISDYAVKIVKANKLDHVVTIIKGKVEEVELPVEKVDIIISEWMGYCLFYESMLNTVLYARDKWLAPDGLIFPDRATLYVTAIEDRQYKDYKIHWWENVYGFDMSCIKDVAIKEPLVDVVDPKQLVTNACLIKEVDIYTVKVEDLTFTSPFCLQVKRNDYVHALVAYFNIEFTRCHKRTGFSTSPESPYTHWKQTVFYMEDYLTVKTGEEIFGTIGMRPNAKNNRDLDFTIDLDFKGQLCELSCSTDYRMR
# Sequence of MLL (Q03164 3785-3969 limits assumed): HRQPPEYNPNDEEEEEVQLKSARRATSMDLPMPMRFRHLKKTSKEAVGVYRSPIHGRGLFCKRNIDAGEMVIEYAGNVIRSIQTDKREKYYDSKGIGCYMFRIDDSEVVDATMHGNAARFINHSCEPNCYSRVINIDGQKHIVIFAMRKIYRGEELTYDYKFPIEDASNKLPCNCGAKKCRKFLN
# T3 sequence (Q9NQV7 whole entry, species assumed): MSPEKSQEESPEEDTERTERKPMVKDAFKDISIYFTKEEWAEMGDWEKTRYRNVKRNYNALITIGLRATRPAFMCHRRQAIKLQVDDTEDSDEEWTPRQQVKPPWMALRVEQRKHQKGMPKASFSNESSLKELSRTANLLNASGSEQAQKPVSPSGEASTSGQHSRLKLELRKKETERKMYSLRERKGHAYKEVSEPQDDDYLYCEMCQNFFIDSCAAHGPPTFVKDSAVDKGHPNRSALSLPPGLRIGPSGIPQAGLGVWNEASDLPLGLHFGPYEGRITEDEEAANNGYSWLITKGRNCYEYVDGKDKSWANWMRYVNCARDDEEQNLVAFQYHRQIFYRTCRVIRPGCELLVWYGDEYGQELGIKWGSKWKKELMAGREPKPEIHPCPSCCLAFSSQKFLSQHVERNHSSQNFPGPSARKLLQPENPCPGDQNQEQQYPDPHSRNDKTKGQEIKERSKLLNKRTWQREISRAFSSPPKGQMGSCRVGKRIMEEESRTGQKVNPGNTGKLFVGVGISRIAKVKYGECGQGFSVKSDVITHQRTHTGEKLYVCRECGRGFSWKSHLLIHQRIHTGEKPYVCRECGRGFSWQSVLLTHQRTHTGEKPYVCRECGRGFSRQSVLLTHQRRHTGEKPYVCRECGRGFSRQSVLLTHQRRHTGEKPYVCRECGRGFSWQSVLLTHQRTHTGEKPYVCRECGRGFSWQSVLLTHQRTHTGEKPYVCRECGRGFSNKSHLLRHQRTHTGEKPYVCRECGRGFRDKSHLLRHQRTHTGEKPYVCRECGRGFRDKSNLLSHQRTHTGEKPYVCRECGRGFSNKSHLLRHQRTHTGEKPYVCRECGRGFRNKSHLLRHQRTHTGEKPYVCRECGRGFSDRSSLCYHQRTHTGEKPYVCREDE
smiles,measurement,setting,value
Nc1ncnc2c1ncn2[C@@H]1O[C@H](C[C@@H](N)CC[C@H](N)C(=O)O)[C@@H](OCc2cnnn2CCCCCCNC(=O)OC2CCN(C(=O)c3ccccc3C3=c4cc5c6c(c4Oc4c3cc3c7c4CCCN7CCC3)CCC[N+]=6CCC5)CC2)[C@H]1O [Sinefungin Probe 1A],Kd,"SET7/9; Example 8, SET7/9, 5 nM probe, experiment performed once, FIG. 2, read-out: Kd",17 nM
same,Kd,"SET7/9; SET7/9, saturation-binding format, mean ± SEM, at least two independent experiments, read-out: Sinefungin Probe 1A Affinity",< 2000 nM and 27 nM
same,Kd,DNMT3b,> 2000 nM
same,Kd,GLP,580 ± 50 nM
same,Kd,PRDM9,2600 ± 600 nM
same,Kd,MLL,750 ± 65 nM
same,Kd,Trypsin,> 10 µM
same,measurable affinity for the probe,"PRMT1; Example 8, PRMT1, 5 nM probe, FIG. 2",only SET7/9 and G9a displayed measurable affinity
same,Kd,"PRMT1; PRMT1, saturation-binding format, read-out: Sinefungin Probe 1A Affinity",> 1200 nM
